{"source": "paper PMC9913425", "about": "“Pentacyclic Triterpenoids-Based Ionic Compounds: Synthesis, Study of Structure–Antitumor Activity Relationship, Effects on Mitochondria and Activation of Signaling Pathways of Proliferation, Genome Reparation and Early Apoptosis” (Cancers, 2023)", "key": {"HL60": {"test_system": "HL60", "experiment": "In vitro cytotoxicity, IC50 by flow cytometry (Guava ViaCount)", "format": "cell-based, human", "conditions": "HL60 cells", "outline": "(§1)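 Cells were grown at 37 °C under 5% CO2; the Jurkat, K562 and HL60 lines were kept in RPMI 1640 with 10% FBS, […] and penicillin–streptomycin. Cells were seeded at 5 × 10^4 per well and incubated overnight. IC50 was derived from Guava ViaCount flow cytometry.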"}, "A2780": {"test_system": "A2780", "experiment": "In vitro cytotoxicity, IC50 by flow cytometry (Guava ViaCount)", "format": "cell-based, human", "conditions": "A2780 cells", "outline": "(§2)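 Suspension lines kept in RPMI 1640 with 10% FBS and […] at 37 °C, 5% CO2; cells seeded at 5 × 10^4 per well and incubated overnight before compound exposure. Viability counted by flow cytometry with Guava ViaCount staining to derive IC50.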"}, "K562": {"test_system": "K562", "experiment": "In vitro cytotoxicity, IC50 by flow cytometry (Guava ViaCount)", "format": "cell-based", "conditions": "K562 cells", "outline": "as §1"}, "Jurkat": {"test_system": "Jurkat", "experiment": "In vitro cytotoxicity, IC50 by flow cytometry (Guava ViaCount)", "format": "cell-based", "conditions": "Jurkat cells", "outline": "as §1"}, "U937": {"test_system": "U937", "experiment": "In vitro cytotoxicity, IC50 by flow cytometry (Guava ViaCount)", "format": "cell-based", "conditions": "U937 cells", "outline": "as §2"}, "HEK293": {"test_system": "HEK293", "experiment": "In vitro cytotoxicity, IC50 by flow cytometry (Guava ViaCount)", "format": "cell-based", "conditions": "HEK293 cells, conditionally normal", "outline": "as §2"}, "[1]": {"test_system": "mitochondria of Jurkat tumor cells", "experiment": "Mitochondrial damage (MitoSense Red staining)", "format": "cell-based", "conditions": "compound at IC50 concentration, incubation 2 h"}, "Jurkat cells [2]": {"test_system": "Jurkat cells", "experiment": "Apoptosis/necrosis induction (Annexin V Alexa Fluor488, 7AAD staining)", "format": "cell-based", "conditions": "compound at IC50 concentration, incubation 2 h", "outline": "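Jurkat cells stained with Annexin V Alexa Fluor488, 7AAD and MitoSense Red to assess membrane state, DNA and mitochondrial membrane integrity, distinguishing apoptosis from necrosis; lower MitoSense Red fluorescence marks mitochondrial damage.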"}, "Jurkat cells [3]": {"test_system": "Jurkat cells", "experiment": "Cell cycle analysis (Guava Cell Cycle Reagent)", "format": "cell-based", "conditions": "IC50 concentration, 24 h, flow histogram", "method": "Our findings are consistent with the literature data that many ICs predominantly affect the G2 and S phases, reducing them.\nThe incubation time of ionic liquids with cells was 24 h. […] It is listed because the picture prints the label with values. / The fit parameters printed in each histogram (RMS, Mean G1, Mean G2, G2/G1, CV G1, CV G2) were left out as statistics of the cell-cycle model."}}, "data": [{"smiles": "C[n+]1ccn(CCCCCCOC(=O)[C@]23CCC(C)(C)CC2C2=CCC4[C@@]5(C)CC[C@H](O)C(C)(C)C5CC[C@@]4(C)[C@]2(C)CC3)c1.O=C([O-])c1ccccc1O", "note": "(stereo partly drawn) [13f, 1-(6-{[(3β)-3-Hydroxyolean-12-en-28-oyl]oxy}hexyl)-3-methylimidazolium Salicylate]", "values": [{"measurement": "IC50", "setting": "HL60", "result": "3 ± 1", "unit": "nM"}, {"measurement": "IC50", "setting": "A2780", "result": "18 ± 2", "unit": "nM"}, {"measurement": "IC50", "setting": "K562", "result": "13 ± 1", "unit": "nM"}, {"measurement": "IC50", "setting": "Jurkat", "result": "8 ± 1", "unit": "nM"}, {"measurement": "IC50", "setting": "U937", "result": "11 ± 1", "unit": "nM"}, {"measurement": "IC50", "setting": "HEK293", "result": "37 ± 3", "unit": "nM"}, {"measurement": "Mito-Damage (%)", "setting": "[1]", "result": 49.43, "unit": "%"}, {"measurement": "Apoptosis (%) Early", "setting": "Jurkat cells [2]", "result": 0.17, "unit": "%"}, {"measurement": "Apoptosis (%) Late", "setting": "Jurkat cells [2]", "result": 35.95, "unit": "%"}, {"measurement": "Apoptosis (%) Necrosis", "setting": "Jurkat cells [2]", "result": 11.07, "unit": "%"}, {"measurement": "Freq Sub-G1 (hypodiploid cell population)", "setting": "Jurkat cells [3]", "result": 9.83, "unit": "%"}]}]}
